Laboratory results from US20030031689A1, “Method of skin exfoliation” (priority 2001, published 2003).

What was measured:
[1] = test system: skin flakiness (stratum corneocytes on the back of the hand); assay: Reduction of skin flakiness (D-Squame discs, image analysis) after twice daily topical application to the hand; type: in vivo, human; conditions: used at 2%
Source text: In tests conducted to compare the efficacy of various agents of this type, mannose-6-phosphate caused a reduction in skin flakiness that exceeded the reduction achieved by N-acetyl glucosamine, lactobionic acid, and various mixtures of alpha hydroxy acids, all used at the same or higher levels than the mannose-6-phosphate. In a representative test, mannose-6-phosphate used at 1% reduced skin flakiness, a common measure of exfoliation efficacy, at a level of 24% after two weeks of treatment and 36% at four weeks. […] Thus, mannose-6-phosphate is particularly and unexpectedly effective for desquamation.
Thirty female subjects between the ages of 21 and 65 are selected to test the efficacy of mannose-6-phosphate in reducing skin flakiness, an indicator of exfoliation efficacy. The subjects are instructed not to use moisturizers or any other products on their hands, and their baseline measurements are taken. […] At the end of two and four weeks the subjects return for testing without applying the product for at least 12 hours and they are re-evaluated under the same conditions. […]
To evaluate the efficacy of the treatment products, four D-Squame discs are firmly and evenly pressed on the back of each hand with a hand held uniform pressure device and removed by gently pulling away from the skin. […] Desquamation is evaluated from the D-Squame discs via an OPTIMA image analyzer. […]

[2] = test system: Normal Human Dermal Fibroblasts(NHDF); assay: Glycosaminoglycan synthesis by 3H-glucosamine incorporation in fibroblast cultures; type: cell-based; conditions: 48 hours
Description: Both mannose and mannose-6-phosphate are tested at various levels from 0.01 mg/ml to 1 mg/ml for their ability to increase the amount of glycosaminoglycans in Normal Human Dermal Fibroblasts(NHDF), using TGF- at 5 and 10 ng/ml as a positive control. NHDF cells are seeded and grown to confluence in a 24 well plate prior to being treated with the test extracts(n=3). At the same time as the treatment, the cultures are labeled with […] of ^3H-glucosamine. The cultures are incubated for 48 hours and extensively washed to remove unbound ^3H-glucosamine prior to being lysed and counted on a scintillation counter. The resulting counts represent newly synthesized glycosaminoglycans. Since glucosamine is required for glycosaminoglycan synthesis, the radioactive glucosamine added to the culture will be incorporated into any glycosaminoglycans synthesized after the addition of the treatment samples. Relative protein levels are determined by comparing the absorbance at 280 nm, of the cell lysates, to the absorbances of a bovine serum albumin curve. […] TGF-, the positive control, is found to increase levels by 28% at 10 ng/ml.

Compound	reduction in skin flakiness ([1]; after two weeks of treatment) [%]	reduction in skin flakiness ([1]; at four weeks) [%]	increase of glycosaminoglycan levels (normalized to protein levels) ([2]; 0.1 mg/ml) [%]	effect on glycosaminoglycan levels ([2]; levels lower and higher than 0.1 mg/ml (tested 0.01 mg/ml to 1 mg/ml))
O=C(O)[C@H](O)[C@@H](O)[C@H](O[C@@H]1O[C@H](CO)[C@H](O)[C@H](O)[C@H]1O)[C@H](O)CO [lactobionic acid]	16	25		
O=C[C@@H](O)[C@@H](O)[C@H](O)[C@H](O)COP(=O)(O)O [mannose-6-phosphate]			20	did not have any significant effect
